Laboratory results taken from patent US20120115896A1, “ISOGENIC HUMAN CELL LINES COMPRISING MUTATED CANCER ALLELES AND PROCESS USING THE CELL LINES” (priority 2008, published 2012).
Where two headings read alike, the source gives them in different places.

What was measured:
[1] = tested on: hTERT-HME1 DKI cells carrying PIK3CA (H1047R) and EGFR (delE746-A750)
[2] = tested on: hTERT-HME1 WT, PIK3CA E545K and H1047R KI cells; assay: CFSE time-course of cell divisions by flow cytometry; assay type: cell-based, human; settings: everolimus 500 nM, 7 days
Method: (§1) (A) CFSE-labelled cells were analyzed by flow cytometry at the indicated time-points (top panels). The maximum fluorescence intensity for all samples was recorded at day 0 (depicted in filled black). […] (B) Cells of the indicated genotype were incubated with everolimus 500 nM for 48 h, after which cell cycle was analyzed by flow cytometry. No increase of the subG1 apoptotic fraction of cells was observed upon treatment. Representative data from 3 independent experiments are shown.
(§2) For time-course experiments, on the initial day hTERT-HME1 cells were labelled with 3 μM CFSE (5-(and -6)-carboxyfluorescein diacetate, succinimidyl ester, Invitrogen C1157, Milan, Italy) in PBS in the dark for 30 minutes. After washing and recording baseline fluorescence, cells were plated in media containing 1% FBS and 2 ng/mL EGF, and treatment with everolimus was initiated, replenishing the drug on a daily basis. For cell cycle analysis, trypsinized cells were washed with PBS and cell nuclei DNA were stained with propidium iodide (PI) for at least 120 minutes using a commercial kit (DNA con 3, Consul T.S., Orbassano, Italy).
(§3) All fluorescence levels were detected by flow cytometry on a FACSCalibur (Becton Dickinson, Milan, Italy) and analyzed using CellQuest software. The number of events collected for each sample varied between 15,000 and 50,000. After doublets exclusion, an extended analysis of the DNA content and calculations of the percentage of cells in each phase of the cell cycle were performed on ModFit Lt software (Verity Software House, Topsham, Me.).

ME-180 cells = assay: Proliferation under everolimus (72 hours) of cells infected with control or KRASG13D lentivirus; assay type: cell-based, human; settings: KRAS G13D lentivirus, FIG. 17B
Method: (§4) Effect of everolimus (72 hours) on proliferation of HKe-3 (HCT116-derivative KRAS WT clone) (A) and ME-180 (B) cells infected with control or KRASG13D lentivirus.
(§5) The present inventors transduced HCT116-derivative clones that had only the KRAS WT allele (HKe-3), and the […] cancer cell line ME-180 (carrying PIK3CA E545K mutant and KRAS WT) with a lentiviral vector encoding for KRAS G13D cDNA.

[3] = tested on: HKe-3 (HCT116-derivative KRAS WT clone) cells; assay: as above; assay type: cell-based, human; settings: KRAS G13D lentivirus, FIG. 17A
Method: as §4, §5

[4] = tested on: phosphorylation of p70S6K, RpS6, AKT and MAPK in hTERT-HME1 WT and KI cells; assay: Biochemical effects of everolimus: immunoblot and ELISA of phospho-proteins; assay type: cell-based, human; settings: for levels of phospho-MAPK: FIG. 16E
Method: (A, E) After 30 minutes' treatment with everolimus 500 nM, cells of the indicated genotype were lysed and immunoblotted with the anti-phospho-P70S6K, totalP70S6K, phospho-MAPK and total MAPK antibodies (B, C, D) The same lysates were also used for ELISA measurements of total AKT, phosphoAKT (Thr308), phosphoAKT (Ser473), total RpS6 and phosphoRpS6 levels. Numbers indicate the ratio of phosphorylated protein related to total protein levels and are normalized respect to the untreated (NT) hTERT-HME1 WT cells. DKI, Double Knock-In cells carrying both PIK3CA H1047R and KRAS G13D alleles.
SDS PAGE was performed using Invitrogen Precasted gels (Invitrogen Carlsbad, Calif.); western blotting transfer onto Hybond-C Extra membranes (Amersham, Amersham Biosciences, Uppsala, Sweden) was done following standard methods. The primary antibodies used for immunoblotting were: Anti-AKT (Cell Signaling, Technology, Danvers, Mass.); Anti-phospho-AKT S473 (Cell Signaling, Technology, Danvers, Mass.); Anti-Actin and Anti-Vinculin (Sigma-Aldrich, St. Louis, Mo.); Phospho-p44/42 Map kinase (Thr202/Tyr204) (Cell Signaling, Technology, Danvers, Mass.); Anti-phospho-EGFR Receptor (Tyr 1068) and Anti EGFR Receptor (Cell Signaling Technology, Danvers, Mass.).

[5] = tested on: hTERT-HME1 cells of the indicated genotype (WT, PIK3CA KI, KRAS G13D, DKI KRAS G13D + PIK3CA H1047R); assay: Cell cycle analysis by flow cytometry (propidium iodide) after everolimus 500 nM for 48 h; assay type: cell-based, human; settings: for cells in G1 phase, Mean / cells in G2/M phase, Mean / cells in S phase, Mean / cells in G2 + S, Mean / cells in Sub-G1, Mean: FACS
Method: as §1, §2, §3
To shed light on the preferential effect induced by everolimus in PIK3CA KI clones, the present inventors also performed FACS analysis. […] The data shown in table 7 are the results of hTERT-HME1 cells of the indicated genotype incubated for 48 h with everolimus (500 nM), wherein the effect on cell cycle was analyzed by FACS. […] Accordingly, the proportions of cells in the S- and G2/M-phases decreased. Means of at least 4 independent experiments are shown. Significance by paired t test was taken at p<0.01.
To further explore the role of mutant KRAS on everolimus' response, the present inventors recapitulated the genetic milieu of the HCT116 colorectal cancer cells in hTERT-HME1 cells, by introducing via homologous recombination both KRAS G13D and PIK3CA H1047R alleles in their genome. This approach generated double-KI (DKI) cells, in which each mutation is expressed under the corresponding gene's own promoter. […] Means of at least 4 independent experiments are shown. Significance by paired t test was taken at p<0.01.

[6] = hTERT-HME1 DKI KRAS G13D + PIK3CA H1047R, propidium iodide
[7] = hTERT-HME1 KI KRAS G13D, propidium iodide

`CO[C@H]1C[C@@H]2CC[C@@H](C)[C@@](O)(O2)C(=O)C(=O)N2CCCC[C@H]2C(=O)O[C@H]([C@H](C)C[C@@H]2CC[C@@H](OCCO)[C@H](OC)C2)CC(=O)[C@H](C)/C=C(\C)[C@@H](O)[C@@H](OC)C(=O)[C@H](C)C[C@H](C)/C=C/C=C/C=C/1C` [everolimus, Everolimus] was tested. Which “ΔKI PIK3CA + EGFR” value ([1]; Log(M) −5.70) did it give?
The value was 0.

What about the “ΔKI PIK3CA + EGFR” value ([1]; Log(M) −6.70) of the same compound?
The value was 1.38.

And the “ΔKI PIK3CA + EGFR” value ([1]; Log(M) −7.70)?
The value was 0.

And the “ΔKI PIK3CA + EGFR” value ([1]; Log(M) −8.70)?
Its value is 0.68.

And the “ΔKI PIK3CA + EGFR” value ([1]; Log(M) −9.70)?
Its value is 0.

And the “slowing of cell growth (CFSE)” value ([2]; PIK3CA E545K)?
The value was “less pronounced”.

What about the “slowing of cell growth (CFSE)” value ([2]; PIK3CA H1047R) of the same compound?
Its value is “particularly evident”.

And the “slowing of cell growth (CFSE)” value ([2]; WT cells)?
Its value is “only minimal”.

And the “response after introduction of mutated KRAS versus control vector” value (ME-180 cells)?
The value was “decreased response to the antiproliferative effects”.

And the “response after (re-)introduction of mutated KRAS versus control vector” value [3]?
Its value is “decreased response to the antiproliferative effects”.

And the “levels of phospho-MAPK” value ([4]; KRAS G13D mutated cells)?
The value was “decreased”.

What about the “levels of phospho-MAPK” value ([4]; WT cells and PIK3CA H1047R mutated cells) of the same compound?
Its value is “essentially unchanged”.

What about the phospho-AKT ([4]; all genotypes, everolimus 500 nM, 30 minutes, FIG. 16C, D) of the same compound?
The phospho-AKT was “increase”.

What about the p70S6K phosphorylation ([4]; everolimus 500 nM, 30 minutes, FIG. 16A) of the same compound?
Its p70S6K phosphorylation is “abrogated”.

And the “activated phospho-RpS6 levels” value ([4]; everolimus 500 nM, 30 minutes, FIG. 16B)?
Its value is “decrease”.

And the “cell cycle response of DKI cells (KRAS G13D and PIK3CA H1047R)” value [5]?
Its value is “cell cycle response comparable to that observed in the parental WT population”.

And the “cells in G1 phase, Mean” value [5, 6]?
The value was 77.5.

What about the “cells in G2/M phase, Mean” value [5, 6] of the same compound?
Its value is 10.5.

What about the “cells in S phase, Mean” value [5, 6] of the same compound?
Its value is 12.0.

And the “cells in G1 phase, Mean” value [5, 7]?
The value was 75.7.

And the “cells in G2/M phase, Mean” value [5, 7]?
Its value is 13.1.

What about the “cells in S phase, Mean” value [5, 7] of the same compound?
Its value is 11.2.

What about the “cells in G1 phase, Mean” value ([5]; hTERT-HME1 KI PIK3CA E545K) of the same compound?
Its value is 78.5.

And the “cells in G2 + S, Mean” value ([5]; hTERT-HME1 KI PIK3CA E545K)?
The value was 21.5.

What about the “cells in G2/M phase, Mean” value ([5]; hTERT-HME1 KI PIK3CA E545K) of the same compound?
The value was 12.7.

And the “cells in S phase, Mean” value ([5]; hTERT-HME1 KI PIK3CA E545K)?
Its value is 8.8.

And the “cells in Sub-G1, Mean” value ([5]; hTERT-HME1 KI PIK3CA E545K)?
Its value is 0.9.

And the “cells in G1 phase, Mean” value ([5]; hTERT-HME1 KI PIK3CA H1047R)?
Its value is 88.7.

What about the “cells in G2 + S, Mean” value ([5]; hTERT-HME1 KI PIK3CA H1047R) of the same compound?
The value was 11.3.

And the “cells in G2/M phase, Mean” value ([5]; hTERT-HME1 KI PIK3CA H1047R)?
The value was 4.9.

What about the “cells in S phase, Mean” value ([5]; hTERT-HME1 KI PIK3CA H1047R) of the same compound?
The value was 6.4.

What about the “cells in Sub-G1, Mean” value ([5]; hTERT-HME1 KI PIK3CA H1047R) of the same compound?
Its value is 0.6.

What about the “cells in G1 phase, Mean” value ([5]; hTERT-HME1 WT) of the same compound?
The value was 75.7.

What about the “cells in G2 + S, Mean” value ([5]; hTERT-HME1 WT) of the same compound?
Its value is 24.3.

What about the “cells in G2/M phase, Mean” value ([5]; hTERT-HME1 WT) of the same compound?
The value was 14.2.

And the “cells in S phase, Mean” value ([5]; hTERT-HME1 WT)?
The value was 10.1.

What about the “cells in Sub-G1, Mean” value ([5]; hTERT-HME1 WT) of the same compound?
The value was 0.9.

And the apoptosis ([5]; vehicle versus drug-treated, FIG. 18B)?
The apoptosis was “almost undetectable”.
